# Laboratory results from ChEMBL document CHEMBL3352071, “Benzimidazoles: novel mycobacterial gyrase inhibitors from scaffold morphing” (ACS Med Chem Lett, 2014).
# Assays:
# [1] = Inhibition of Mycobacterium tuberculosis H37Rv DNA gyrase A2B2 holoenzyme supercoiling activity using relaxed pBR322 substrate incubated for 90 mins by ethidium bromide staining based gel electrophoresis method
# [2] = system: Mycobacterium tuberculosis; assay: Antimicrobial activity against Mycobacterium tuberculosis H37Rv ATCC 27294; type: functional
# DNA gyrase subunit B = DNA gyrase subunit B (Mycobacterium smegmatis, UniProt P0C559); assay: Inhibition of Mycobacterium smegmatis GyrB ATPase activity; set-up: species or system Mycolicibacterium smegmatis
# DNA gyrase subunit B, sequence (P0C559 whole entry): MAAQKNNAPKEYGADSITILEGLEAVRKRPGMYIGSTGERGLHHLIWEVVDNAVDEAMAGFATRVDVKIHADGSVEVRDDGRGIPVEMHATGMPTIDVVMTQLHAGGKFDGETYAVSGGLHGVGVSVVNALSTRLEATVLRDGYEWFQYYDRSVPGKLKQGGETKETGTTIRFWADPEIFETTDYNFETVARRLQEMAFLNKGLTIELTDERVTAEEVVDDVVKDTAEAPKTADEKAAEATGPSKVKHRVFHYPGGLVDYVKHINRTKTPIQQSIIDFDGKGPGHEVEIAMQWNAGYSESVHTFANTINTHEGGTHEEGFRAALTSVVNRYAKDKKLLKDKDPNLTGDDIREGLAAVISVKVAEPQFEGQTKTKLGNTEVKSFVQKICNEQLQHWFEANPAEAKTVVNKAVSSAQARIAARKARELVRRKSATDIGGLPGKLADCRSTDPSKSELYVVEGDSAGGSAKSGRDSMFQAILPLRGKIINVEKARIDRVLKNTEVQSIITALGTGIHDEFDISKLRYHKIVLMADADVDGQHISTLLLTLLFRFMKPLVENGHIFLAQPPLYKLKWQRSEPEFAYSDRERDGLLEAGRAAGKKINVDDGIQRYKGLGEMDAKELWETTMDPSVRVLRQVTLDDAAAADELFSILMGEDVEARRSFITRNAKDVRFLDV
# THP-1 = assay: Cytotoxicity against human THP1 cells; type: cell-based
# [3] = Octanol-water partition coefficient, logD of the compound at pH 7.4 by shake-flask method; type: physicochemical
# [4] = molecular target: Voltage-gated inwardly rectifying potassium channel KCNH2 (Homo sapiens, UniProt Q12809)
# Voltage-gated inwardly rectifying potassium channel KCNH2, sequence (Q12809 whole entry): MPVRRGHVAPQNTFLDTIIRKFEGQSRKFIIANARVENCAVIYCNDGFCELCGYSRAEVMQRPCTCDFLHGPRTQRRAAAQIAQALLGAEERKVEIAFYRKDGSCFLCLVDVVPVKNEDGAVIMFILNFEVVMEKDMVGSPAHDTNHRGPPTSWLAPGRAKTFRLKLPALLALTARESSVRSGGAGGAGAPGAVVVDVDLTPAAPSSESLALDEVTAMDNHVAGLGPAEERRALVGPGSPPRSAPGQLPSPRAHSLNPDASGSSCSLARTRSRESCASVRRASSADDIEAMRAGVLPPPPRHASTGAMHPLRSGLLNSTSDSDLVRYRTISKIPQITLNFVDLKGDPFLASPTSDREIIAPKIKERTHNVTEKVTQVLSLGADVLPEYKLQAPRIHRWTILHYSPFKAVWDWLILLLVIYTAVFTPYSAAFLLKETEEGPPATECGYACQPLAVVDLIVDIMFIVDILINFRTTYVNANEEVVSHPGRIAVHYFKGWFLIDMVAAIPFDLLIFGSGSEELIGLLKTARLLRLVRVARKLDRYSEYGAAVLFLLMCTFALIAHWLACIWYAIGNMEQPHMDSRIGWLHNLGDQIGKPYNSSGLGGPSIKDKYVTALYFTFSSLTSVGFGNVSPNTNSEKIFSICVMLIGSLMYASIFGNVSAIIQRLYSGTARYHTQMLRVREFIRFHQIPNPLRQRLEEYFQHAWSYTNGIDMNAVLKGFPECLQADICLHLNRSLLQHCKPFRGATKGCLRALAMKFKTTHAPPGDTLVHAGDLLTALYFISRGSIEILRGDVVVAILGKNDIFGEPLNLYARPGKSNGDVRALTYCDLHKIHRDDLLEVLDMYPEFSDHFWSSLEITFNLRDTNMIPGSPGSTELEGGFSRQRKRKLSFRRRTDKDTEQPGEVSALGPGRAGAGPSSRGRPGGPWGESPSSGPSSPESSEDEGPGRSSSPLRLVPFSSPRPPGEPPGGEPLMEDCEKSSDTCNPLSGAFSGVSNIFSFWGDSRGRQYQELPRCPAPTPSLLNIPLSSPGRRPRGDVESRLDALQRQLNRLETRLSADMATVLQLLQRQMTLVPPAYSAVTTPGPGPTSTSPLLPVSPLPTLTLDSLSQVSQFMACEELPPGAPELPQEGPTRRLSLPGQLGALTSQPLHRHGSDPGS
# Description: Inhibition of human ERG by electrophysiology assay
# [5] = Solubility of the compound; type: physicochemical
# [6] = Permeability from apical to basolateral side in human Caco2 cells; type: ADME, cell-based; conditions: Caco-2, read-out: permeability
# [7] = Permeability from basolateral to apical side in human Caco2 cells; type: ADME, cell-based; conditions: Caco-2, read-out: permeability
# [8] = Clearance in Wistar rat at 1 mg/kg, iv; type: ADME, organism-based; set-up: dose 1 mg/kg, route intravenous; conditions: in vivo
# [9] = Volume of distribution at steady state in Wistar rat at 1 mg/kg, iv; type: ADME, organism-based; set-up: dose 1 mg/kg, route intravenous; conditions: in vivo, read-out: Vdss
# [10] = Elimination half life in Wistar rat at 1 mg/kg, iv; type: ADME, organism-based; set-up: dose 1 mg/kg, route intravenous; conditions: in vivo, read-out: beta t1/2 (converted)
# [11] = AUC (0 to infinity) in Wistar rat at 1 mg/kg, iv; type: ADME, organism-based; set-up: time infinity, dose 1 mg/kg, route intravenous; conditions: plasma
# [12] = AUC (0 to infinity) in Wistar rat at 10 mg/kg, po; type: ADME, organism-based; set-up: time infinity, dose 10 mg/kg, route oral; conditions: plasma
# [13] = Oral bioavailability in Wistar rat at 10 mg/kg; type: ADME, organism-based; conditions: in vivo
# Cytochrome P450 1A2 = molecular target: T1, Cytochrome P450 1A2 (Homo sapiens, UniProt P05177); assay: Inhibition of CYP1A2 (unknown origin); type: ADME
# T1 sequence (P05177 whole entry): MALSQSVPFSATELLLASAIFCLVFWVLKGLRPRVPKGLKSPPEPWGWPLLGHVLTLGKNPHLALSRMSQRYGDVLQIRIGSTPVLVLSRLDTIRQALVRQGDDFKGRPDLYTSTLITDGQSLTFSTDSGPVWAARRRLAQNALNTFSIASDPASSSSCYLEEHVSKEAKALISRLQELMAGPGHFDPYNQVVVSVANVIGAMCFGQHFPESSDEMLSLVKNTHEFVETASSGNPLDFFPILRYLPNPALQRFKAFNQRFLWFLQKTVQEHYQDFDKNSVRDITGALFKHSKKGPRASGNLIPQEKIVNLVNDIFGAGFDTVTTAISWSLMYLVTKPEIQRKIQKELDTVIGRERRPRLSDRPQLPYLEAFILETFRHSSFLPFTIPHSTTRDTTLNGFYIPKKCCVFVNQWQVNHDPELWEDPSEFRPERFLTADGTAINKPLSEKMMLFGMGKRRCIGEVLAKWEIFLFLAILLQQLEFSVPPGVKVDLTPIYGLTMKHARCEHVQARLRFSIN
# Cytochrome P450 2C9 = Cytochrome P450 2C9 (Homo sapiens, UniProt P11712); assay: Inhibition of CYP2C9 (unknown origin); type: ADME
# Cytochrome P450 2C9, sequence (P11712 whole entry): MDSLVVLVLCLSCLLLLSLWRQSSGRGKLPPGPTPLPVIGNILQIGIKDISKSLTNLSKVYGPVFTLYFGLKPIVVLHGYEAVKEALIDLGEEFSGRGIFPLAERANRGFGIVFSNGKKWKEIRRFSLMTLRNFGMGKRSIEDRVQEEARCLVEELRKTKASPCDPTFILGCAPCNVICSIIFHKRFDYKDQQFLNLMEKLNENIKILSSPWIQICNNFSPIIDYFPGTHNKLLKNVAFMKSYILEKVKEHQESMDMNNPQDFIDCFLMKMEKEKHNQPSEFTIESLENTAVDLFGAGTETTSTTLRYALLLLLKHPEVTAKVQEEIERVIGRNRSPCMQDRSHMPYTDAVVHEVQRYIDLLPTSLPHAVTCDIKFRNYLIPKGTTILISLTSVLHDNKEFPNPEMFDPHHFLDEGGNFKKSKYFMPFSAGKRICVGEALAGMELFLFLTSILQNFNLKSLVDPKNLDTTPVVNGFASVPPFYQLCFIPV
# Cytochrome P450 2C19 = Cytochrome P450 2C19 (Homo sapiens, UniProt P33261); assay: Inhibition of CYP2C19 (unknown origin); type: ADME
# Cytochrome P450 2C19, sequence (P33261 whole entry): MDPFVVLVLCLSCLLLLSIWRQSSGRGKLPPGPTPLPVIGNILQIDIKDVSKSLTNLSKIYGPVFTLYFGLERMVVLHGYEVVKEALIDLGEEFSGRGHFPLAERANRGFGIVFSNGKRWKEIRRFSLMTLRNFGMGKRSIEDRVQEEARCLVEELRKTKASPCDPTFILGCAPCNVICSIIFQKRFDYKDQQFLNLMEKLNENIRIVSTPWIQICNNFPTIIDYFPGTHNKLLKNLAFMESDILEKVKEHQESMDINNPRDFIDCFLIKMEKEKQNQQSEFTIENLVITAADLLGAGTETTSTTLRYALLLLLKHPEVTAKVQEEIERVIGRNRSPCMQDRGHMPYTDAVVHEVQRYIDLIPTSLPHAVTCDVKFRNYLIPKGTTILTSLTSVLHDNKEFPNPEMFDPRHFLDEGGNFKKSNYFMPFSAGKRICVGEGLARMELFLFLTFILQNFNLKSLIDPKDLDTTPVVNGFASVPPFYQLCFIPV
# Cytochrome P450 2D6 = Cytochrome P450 2D6 (Homo sapiens, UniProt P10635); assay: Inhibition of CYP2D6 (unknown origin); type: ADME
# Cytochrome P450 2D6, sequence (P10635 whole entry): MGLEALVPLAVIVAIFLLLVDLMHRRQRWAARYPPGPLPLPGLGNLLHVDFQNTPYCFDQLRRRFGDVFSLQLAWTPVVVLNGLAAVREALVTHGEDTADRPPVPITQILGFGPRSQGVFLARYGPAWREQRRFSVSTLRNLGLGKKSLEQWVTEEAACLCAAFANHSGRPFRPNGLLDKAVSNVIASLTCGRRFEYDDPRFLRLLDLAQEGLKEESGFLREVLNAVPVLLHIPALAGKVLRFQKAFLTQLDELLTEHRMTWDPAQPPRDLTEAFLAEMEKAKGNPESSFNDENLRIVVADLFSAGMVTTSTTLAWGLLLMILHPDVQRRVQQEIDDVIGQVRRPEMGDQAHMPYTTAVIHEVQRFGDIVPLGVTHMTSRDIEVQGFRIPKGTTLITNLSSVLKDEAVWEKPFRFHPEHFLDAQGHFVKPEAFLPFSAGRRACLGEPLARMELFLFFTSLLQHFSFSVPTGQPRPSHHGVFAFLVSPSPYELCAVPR
# Cytochrome P450 3A4 = Cytochrome P450 3A4 (Homo sapiens, UniProt P08684); assay: Inhibition of CYP3A4 (unknown origin); type: ADME
# Cytochrome P450 3A4, sequence (P08684 whole entry): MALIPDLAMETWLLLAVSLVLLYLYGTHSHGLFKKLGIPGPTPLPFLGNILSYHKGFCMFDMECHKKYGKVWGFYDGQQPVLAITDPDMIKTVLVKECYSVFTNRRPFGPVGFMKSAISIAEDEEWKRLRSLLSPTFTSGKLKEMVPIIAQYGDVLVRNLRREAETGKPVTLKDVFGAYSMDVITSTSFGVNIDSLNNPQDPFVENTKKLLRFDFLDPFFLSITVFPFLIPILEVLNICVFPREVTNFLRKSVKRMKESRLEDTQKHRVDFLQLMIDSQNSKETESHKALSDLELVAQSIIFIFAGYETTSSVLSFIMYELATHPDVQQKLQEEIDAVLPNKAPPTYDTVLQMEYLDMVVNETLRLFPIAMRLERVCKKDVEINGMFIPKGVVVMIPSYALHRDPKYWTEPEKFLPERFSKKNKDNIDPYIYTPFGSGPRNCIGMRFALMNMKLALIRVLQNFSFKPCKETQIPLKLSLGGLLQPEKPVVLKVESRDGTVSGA
SMILES,MIC [2] [µM],logD [3],IC50 [4] [µM],also measured
N#Cc1ccc2ccc(=O)n(CCN3CCC(NCc4ccc5c(n4)NC(=O)CO5)CC3)c2c1,0.19,,,IC50 [1]: 0.11 µM
COc1cnc2ccc(=O)n(CCN3CCC(C4C(=O)Nc5ccc(Cl)cc54)CC3)c2c1 (stereo not drawn),100,2.8,4.8,IC50 [1]: > 50 µM; IC50 (DNA gyrase subunit B): > 100 µM; IC50 (THP-1): > 50 µM
COc1cnc2ccc(=O)n(CCN3CCC(c4nc5cc(C(F)(F)F)ccc5[nH]4)CC3)c2c1,0.19,4,,IC50 (DNA gyrase subunit B): > 100 µM; IC50 (THP-1): > 50 µM
COc1cnc2ccc(=O)n(CCN3CCN(c4nc5cc(C(F)(F)F)ccc5[nH]4)CC3)c2c1,3.13,2.8,10,
COc1cnc2ccc(=O)n(CCN3CCN(c4nc5ccccc5[nH]4)CC3)c2c1,100,2.4,7,
O=c1ccc2ncc(F)cc2n1CCN1CCN(c2nc3cc(C(F)(F)F)ccc3[nH]2)CC1,15,3.7,,
O=c1ccc2ncc(F)cc2n1CCN1CCC(c2nc3cc(C(F)(F)F)ccc3[nH]2)CC1,0.78,,,
N#Cc1ccc2[nH]c(C3CCN(CCn4c(=O)ccc5ncc(F)cc54)CC3)nc2c1,50,,,
COc1cnc2ccc(=O)n(CCN3CCC(c4nc5cc(Cl)ccc5[nH]4)CC3)c2c1,0.25,3.6,,
COc1cnc2ccc(=O)n(CCN3CCC(c4nc5cc(C#N)ccc5[nH]4)CC3)c2c1,3.15,2.4,,
COc1cnc2ccc(=O)n(CCN3CCC(c4nc5cc(Cl)c(F)cc5[nH]4)CC3)c2c1,0.06,4,,IC50 [1]: 2 µM
COc1cnc2ccc(=O)n(CCN3CCC(c4nc5cc(Cl)c(C)cc5[nH]4)CC3)c2c1,0.13,3.8,,
Cc1cc2[nH]c(C3CCN(CCn4c(=O)ccc5ncc(F)cc54)CC3)nc2cc1Cl,1.56,3.7,1.2,
COc1ccc2ncc(=O)n(CCN3CCC(c4nc5cc(Cl)c(C)cc5[nH]4)CC3)c2c1,0.13,,,
COc1cnc2ncc(=O)n(CCN3CCC(c4nc5cc(Cl)c(C)cc5[nH]4)CC3)c2c1,0.39,3.5,10,
Cc1cc2[nH]c(C3CCN(CCn4c(=O)ccc5ncc(F)cc54)CC3)nc2cc1C#N,3.15,,,
COc1cnc2ccc(=O)n(CCN3CCC(c4nc5cc(C#N)c(C)cc5[nH]4)CC3)c2c1,0.19,2.8,,IC50 [1]: 4.3 µM; solubility [5]: 2.1 µM; Papp A→B [6]: 4 nm/s; Papp B→A [7]: 281 nm/s; clearance [8]: 2.13 L/h/kg; Vd [9]: 1.01 L/kg; half-life [10]: 36 min; AUC(0-inf) [11]: 0.47 µg·h/mL; AUC(0-inf) [12]: 0.02 µg·h/mL; bioavailability [13]: 1.1%; IC50 (Cytochrome P450 1A2): > 30 µM; IC50 (Cytochrome P450 2C9): > 30 µM; IC50 (Cytochrome P450 2C19): > 30 µM; IC50 (Cytochrome P450 2D6): 28 µM; IC50 (Cytochrome P450 3A4): 9.4 µM
COc1cnc2ccc(=O)n(CCN3CCN(c4nc5cc(C#N)c(C)cc5[nH]4)CC3)c2c1,0.78,3.2,> 33,solubility [5]: 3 µM; Papp A→B [6]: 15 nm/s; Papp B→A [7]: 241 nm/s; clearance [8]: 1.93 L/h/kg; Vd [9]: 1.54 L/kg; half-life [10]: 48 min; AUC(0-inf) [11]: 0.52 µg·h/mL; AUC(0-inf) [12]: 0.16 µg·h/mL; bioavailability [13]: 3.3%; IC50 (Cytochrome P450 1A2): > 30 µM; IC50 (Cytochrome P450 2C9): > 30 µM; IC50 (Cytochrome P450 2C19): > 30 µM; IC50 (Cytochrome P450 2D6): 20 µM; IC50 (Cytochrome P450 3A4): 20 µM
N#Cc1ccc2[nH]c(C3CCN(CCn4c(=O)ccc5ncc(Oc6cccnc6)cc54)CC3)nc2c1,3.13,2.9,,
N#Cc1ccc2[nH]c(C3CCN(CCn4c(=O)ccc5ncc(Oc6ccc(S(N)(=O)=O)cc6)cc54)CC3)nc2c1,0.78,2.2,> 33,
NS(=O)(=O)c1ccc(Oc2cnc3ccc(=O)n(CCN4CCC(c5nc6cc(C(F)(F)F)ccc6[nH]5)CC4)c3c2)cc1,0.19,2.4,> 33,IC50 [1]: 1.9 µM
COc1cnc2ccc(=O)n(CCN3CCC(c4c[nH]c5ccc(C#N)cc45)CC3)c2c1,100,3.3,2,IC50 [1]: > 50 µM; IC50 (DNA gyrase subunit B): > 100 µM; IC50 (THP-1): > 50 µM
COc1cnc2ccc(=O)n(CCN3CCC(c4c[nH]c5cc(C(F)(F)F)ccc45)CC3)c2c1,50,4,,IC50 [1]: > 50 µM; IC50 (DNA gyrase subunit B): > 100 µM; IC50 (THP-1): > 50 µM
O=c1ccc2ncc(F)cc2n1CCN1CCC(NCc2ccc(C(F)(F)F)nc2)CC1,0.19,,,IC50 [1]: 0.25 µM
O=C(O)c1cn(C2CC2)c2cc(N3CCNCC3)c(F)cc2c1=O [CIPROFLOXACIN],0.5,,,
NNC(=O)c1ccncc1 [ISONIAZID],0.06,,,
COc1c(N2C[C@@H]3CCCN[C@@H]3C2)c(F)cc2c(=O)c(C(=O)O)cn(C3CC3)c12 [MOXIFLOXACIN],0.13,,,
